{"source": "patent US20090215748A1", "about": "“FXR agonists for treating vitamin D associated diseases” (Wyeth, priority 2007, published 2009)", "type_in_all_cases": "in vivo", "key": {"KKAy mice [1]": {"test_system": "KKAy mice", "assay": "Hepatic lipid metabolism and deposition in the KKAy model of diabetic nephropathy", "excerpt": "The KKAy mice are diabetic mice characterized by hyperglycemia and insulin resistance and are renally impaired with nodular glomerulosclerosis, mesangial proliferation, and abuminuria that increases with age or with a high cholesterol diet. Abnormal lipid metabolism and renal lipid accumulation may contribute to diabetic nephropathy. Administration of FXR agonist, Compound A (isopropyl 3-(3,4-difluorobenzoyl)-1,1-dimethyl-1,2,3,6-tetrahydroazepino[4,5-b]indole-5-carboxylate) improves hepatic lipid metabolism and deposition in the KKAy model of diabetic nephropathy."}, "CYP27B1 [2]": {"test_system": "CYP27B1", "assay": "Gene profiling of kidneys isolated from KKAy mice treated with Compound A", "description": "To examine the role of FXR in the kidney, gene-profiling experiments were performed using kidneys isolated from KKAy mice treated with Compound A. Genes involved in vitamin D synthesis, calcium mobilization, amino acid metabolism, inflammation, oxidative phosphorylation, and nitric oxide production were regulated by Compound A treatment. […] The CYP27B1 gene, expressed in the proximal tubes of the kidney, encodes 25-hydroxyvitamin D3 1α-hydroxylase, which generates the active form of vitamin D, 1α,25-dihydroxyvitamin D3, from a proform of vitamin D, 25 hydroxyvitamin D3."}, "CYP27B1 [3]": {"test_system": "CYP27B1", "assay": "CYP27B1 expression in wild (WT) mice, 7 day treatment (FIG. 1)"}, "CYP27B1 [4]": {"test_system": "CYP27B1", "assay": "CYP27B1 expression in FXR deficient (FXR KO) mice, 7 day treatment (FIG. 1)"}, "KKAy mice [5]": {"test_system": "KKAy mice", "assay": "Serum creatinine level in KKAy mice, 7 days oral dosing (FIG. 3)", "conditions": "orally once a day for seven days, not statistically significant"}, "CYP27B1 [6]": {"test_system": "CYP27B1", "assay": "CYP27B1 gene expression in chow fed KKAy mice, 7 day treatment (FIG. 4)"}, "MMP-14": {"test_system": "MMP-14", "assay": "MMP-14 gene expression in chow fed KKAy mice, 7 day treatment (FIG. 5)"}, "renin": {"test_system": "renin", "assay": "Renal renin gene expression in KKAy mice, 4 weeks treatment (FIG. 6)", "conditions": "once a day for 4 weeks", "excerpt": "Vitamin D and its receptor vitamin D receptor (VDR) may regulate the cardiovascular system. VDR deficient and CYP27B1 deficient mice have increased blood pressure and left ventricle hypertrophy."}, "OVX rats": {"test_system": "OVX rats", "assay": "OVX-induced bone loss in OVX rats", "conditions": "3 and 30 mg/kg, 6-10 weeks of treatment", "excerpt": "OVX rats are rats subjected to bilateral ovariectomy, which results in development of osteopenia. Two studies have been conducted to evaluate the effect of one of the FXR agonists disclosed herein, isopropyl 3-(3,4-difluorobenzoyl)-1,1-dimethyl-1,2,3,6-tetrahydroazepino[4,5-b]-indole-5-carboxylate, in OVX rats. […] The exposure level of the compound in bone tissue of the rats was not studied and the EC50 of the compound in bone cells was not studied. Accordingly, the reason for the absence of an observable effect has not been determined."}}, "data": [{"smiles": "CC(C)OC(=O)C1=CN(C(=O)c2ccc(F)c(F)c2)CC(C)(C)c2c1[nH]c1ccccc21", "note": "[Compound A, isopropyl 3-(3,4-difluorobenzoyl)-1,1-dimethyl-1,2,3,6-tetrahydroazepino[4,5-b]indole-5-carboxylate]", "values": [{"measurement": "hepatic lipid metabolism and deposition", "setting": "KKAy mice [1]", "value": "improves"}, {"measurement": "CYP27B1 gene expression", "setting": "CYP27B1 [2]", "value": "upregulated"}, {"measurement": "expression of CYP27B1, induction", "setting": "CYP27B1 [3]", "value": 15, "unit": "fold"}, {"measurement": "effect on the expression of CYP27B1", "setting": "CYP27B1 [4]", "value": "No effect"}, {"measurement": "reduction in serum creatinine levels", "setting": "KKAy mice [5]", "value": 20, "unit": "%"}, {"measurement": "CYP27B1 gene expression", "setting": "CYP27B1 [6]", "value": "upregulated"}, {"measurement": "MMP-14 gene expression", "setting": "MMP-14", "value": "decreased"}, {"measurement": "renal renin gene expression", "setting": "renin", "value": "significant reduction"}, {"measurement": "effect on preventing or restoring OVX-induced bone loss", "setting": "OVX rats", "value": "did not show any effect"}]}]}
